Measured values reported in ChEMBL document CHEMBL1145274, “The evaluation of 2,8-disubstituted benzoxazinone derivatives as anti-inflammatory and anti-platelet aggregation agents” (Bioorg Med Chem Lett, 2005).

Key:
Format in all cases: functional, organism-based
Homo sapiens [1] = species on record: Homo sapiens; test: Inhibitory concentration for anti-platelet aggregation induced by arachidonic acid at 100 uM concentration
Homo sapiens [2] = species on record: Homo sapiens; test: Inhibitory concentration against superoxide anion (O2-) generation in human neutrophils induced by FMLP (formyl-Met-Leu-Phe) and […](phorbol myristate acetate)
Homo sapiens [3] = species on record: Homo sapiens; test: Inhibitory concentration for anti-platelet aggregation induced by collagen at 10 ug/mL concentration
Homo sapiens [4] = species on record: Homo sapiens; test: Inhibitory concentration for anti-platelet aggregation induced by thrombin at 0.1 U/mL concentration
Homo sapiens [5] = species on record: Homo sapiens; test: Inhibitory concentration for anti-platelet aggregation induced by platelet activating factor at 2 ng/mL concentration
Homo sapiens [6] = species on record: Homo sapiens; test: Inhibitory concentration against neutrophil elastase release induced by FMLP (formyl-Met-Leu-Phe)

SMILES	IC50 (Homo sapiens [1]) [µM]	IC50 (Homo sapiens [2]) [µM]	IC50 (Homo sapiens [3]) [µM]	IC50 (Homo sapiens [4]) [µM]	IC50 (Homo sapiens [5]) [µM]	IC50 (Homo sapiens [6]) [µM]
COc1cccc2c(=O)oc(-c3ccc(Br)cc3)nc12	> 100	> 40	> 100	> 100	> 100	–
COc1cccc2c(=O)oc(-c3ccccc3F)nc12	8	9.74	39.4	7.2	> 100	–
COc1cccc2c(=O)oc(-c3ccccc3Cl)nc12	11.8	14.7	35.5	6.9	> 100	–
COc1ccccc1-c1nc2c(OC)cccc2c(=O)o1	> 100	14	> 100	> 100	> 100	1.59
COc1ccccc1-c1nc2c(C)cccc2c(=O)o1	36.6	22.7	54.7	> 100	> 100	7.23
Cc1cccc2c(=O)oc(-c3ccccc3F)nc12	6.8	10.8	11.9	34.3	> 100	> 40
O=c1oc(-c2ccccc2Cl)nc2c(Cl)cccc12	6.1	8.66	30	6.6	69.5	1.89
O=c1oc(-c2ccccc2F)nc2c(Cl)cccc12	12.7	> 40	49.1	14.7	87.4	6.03
COc1ccccc1-c1nc2c(Cl)cccc2c(=O)o1	25.4	10	44.9	14.8	70.3	1.91
Cc1cccc2c(=O)oc(-c3ccccc3Cl)nc12	4.3	29.9	12.6	11.9	> 100	> 40
O=c1oc(-c2ccccc2Br)nc2c(Cl)cccc12	10.2	6.56	47	7.1	87.5	1.69
COc1cccc2c(=O)oc(-c3ccccc3C)nc12	8.4	11.4	34.3	67	> 100	10.6
Cc1ccccc1-c1nc2c(C)cccc2c(=O)o1	19.3	23.6	> 100	> 100	> 100	> 40
Cc1cccc2c(=O)oc(-c3ccccc3Br)nc12	5.8	30.2	49.8	18.9	89.3	> 40
CCc1nc2c(OC)cccc2c(=O)o1	> 100	100	> 100	> 40	> 40	100
COc1cccc2c(=O)oc(C)nc12	> 100	> 40	> 100	> 100	> 100	> 40
Cc1ccccc1-c1nc2c(Cl)cccc2c(=O)o1	13.8	17.5	63.3	36.3	91.9	> 40
COc1cccc2c(=O)oc(-c3ccccc3Br)nc12	13	16.7	21.1	4.4	> 100	–
COc1cccc2c(=O)oc(-c3ccc(Cl)cc3)nc12	> 100	> 40	> 100	> 100	> 100	–
COc1cccc2c(=O)oc(-c3ccccc3)nc12	47.3	> 40	33.8	48.2	> 100	> 40
CCCCc1nc2c(OC)cccc2c(=O)o1	> 100	> 40	> 100	> 100	> 100	> 40
CC(=O)Oc1ccccc1C(=O)O [ASPIRIN]	34.6	–	34.9	> 100	> 100	–
c1ccc2c(c1)[I+]c1ccccc1-2 [DIPHENYLENEIODONIUM]	–	0.46	–	–	–	–
